Here are results for 26 compounds from US20250388582A1, “NOVEL BICYCLIC HETEROARYL COMPOUND AND USE THEREOF” (ILDONG PHARMACEUTICAL CO., LTD., priority 2022, published 2025).

SMILES strings stand for the structures.

For the test, the target named is T1, human GST-PIKFYVE (Homo sapiens, UniProt Q9Y2I7).
T1 construct: GST; purchased Carna biosciences 11-118
T1 sequence (Q9Y2I7 whole entry): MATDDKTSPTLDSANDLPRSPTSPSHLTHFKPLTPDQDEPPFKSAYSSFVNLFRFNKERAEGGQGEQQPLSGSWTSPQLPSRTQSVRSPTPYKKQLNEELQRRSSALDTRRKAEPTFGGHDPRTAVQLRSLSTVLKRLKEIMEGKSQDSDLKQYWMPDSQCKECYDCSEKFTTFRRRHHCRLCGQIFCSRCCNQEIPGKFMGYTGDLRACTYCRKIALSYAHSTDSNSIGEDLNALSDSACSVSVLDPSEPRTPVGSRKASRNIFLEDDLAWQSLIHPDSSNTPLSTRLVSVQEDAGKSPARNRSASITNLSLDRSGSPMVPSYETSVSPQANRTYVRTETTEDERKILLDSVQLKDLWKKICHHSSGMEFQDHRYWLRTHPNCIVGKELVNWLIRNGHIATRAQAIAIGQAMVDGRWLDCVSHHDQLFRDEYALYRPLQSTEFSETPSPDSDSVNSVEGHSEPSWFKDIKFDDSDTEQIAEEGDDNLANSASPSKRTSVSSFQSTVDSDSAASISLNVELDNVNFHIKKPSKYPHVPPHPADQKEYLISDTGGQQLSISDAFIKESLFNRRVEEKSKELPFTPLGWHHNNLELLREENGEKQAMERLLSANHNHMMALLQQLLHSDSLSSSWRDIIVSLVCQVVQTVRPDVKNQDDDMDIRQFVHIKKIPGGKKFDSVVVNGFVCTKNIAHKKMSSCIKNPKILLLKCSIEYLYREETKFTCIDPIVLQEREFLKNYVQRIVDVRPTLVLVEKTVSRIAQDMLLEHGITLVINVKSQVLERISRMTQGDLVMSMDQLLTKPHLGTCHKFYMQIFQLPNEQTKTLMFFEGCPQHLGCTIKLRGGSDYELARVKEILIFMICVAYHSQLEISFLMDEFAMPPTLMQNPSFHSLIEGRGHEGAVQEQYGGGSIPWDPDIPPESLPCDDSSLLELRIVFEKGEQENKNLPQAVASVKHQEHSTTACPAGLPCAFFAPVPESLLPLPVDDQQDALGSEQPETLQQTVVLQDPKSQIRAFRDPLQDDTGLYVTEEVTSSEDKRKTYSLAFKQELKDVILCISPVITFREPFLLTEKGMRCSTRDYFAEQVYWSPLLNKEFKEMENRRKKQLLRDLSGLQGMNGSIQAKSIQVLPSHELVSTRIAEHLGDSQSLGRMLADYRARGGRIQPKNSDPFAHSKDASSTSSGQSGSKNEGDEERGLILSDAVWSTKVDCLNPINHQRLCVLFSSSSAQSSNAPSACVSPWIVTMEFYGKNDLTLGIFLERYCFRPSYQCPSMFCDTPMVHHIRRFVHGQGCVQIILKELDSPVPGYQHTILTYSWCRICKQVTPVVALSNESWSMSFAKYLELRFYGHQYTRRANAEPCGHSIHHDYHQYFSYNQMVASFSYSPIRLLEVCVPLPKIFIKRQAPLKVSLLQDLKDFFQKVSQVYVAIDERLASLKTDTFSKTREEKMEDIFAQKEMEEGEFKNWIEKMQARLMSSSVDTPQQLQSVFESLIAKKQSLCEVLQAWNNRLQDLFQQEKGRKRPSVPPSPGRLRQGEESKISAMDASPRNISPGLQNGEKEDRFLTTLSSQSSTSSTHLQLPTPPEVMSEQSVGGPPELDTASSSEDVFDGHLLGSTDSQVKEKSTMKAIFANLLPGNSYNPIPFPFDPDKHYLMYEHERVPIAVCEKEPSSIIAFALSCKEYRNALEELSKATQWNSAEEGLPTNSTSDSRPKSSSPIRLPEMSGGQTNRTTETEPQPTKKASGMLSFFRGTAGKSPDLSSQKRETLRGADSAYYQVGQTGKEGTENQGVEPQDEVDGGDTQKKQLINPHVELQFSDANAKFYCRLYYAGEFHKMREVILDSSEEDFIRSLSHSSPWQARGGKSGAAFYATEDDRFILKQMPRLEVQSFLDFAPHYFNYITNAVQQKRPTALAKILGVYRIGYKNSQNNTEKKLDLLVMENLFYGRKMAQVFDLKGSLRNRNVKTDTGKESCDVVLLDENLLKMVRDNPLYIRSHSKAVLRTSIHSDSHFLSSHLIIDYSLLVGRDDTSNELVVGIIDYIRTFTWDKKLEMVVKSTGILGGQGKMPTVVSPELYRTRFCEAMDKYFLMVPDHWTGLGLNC
As to the kind of experiment: ADP-Glo kinase assay, enzyme inhibition activity against human PIKFYVE (Carna biosciences). The following applies: inhibitory activity at final compound concentration 10 nM; 1 hour at room temperature. Format: biochemical. The method, then: The enzyme inhibition activity values for the compounds according to Examples against human PIKFYVE were calculated using the ADP-Glo™ kinase assay service of Carna biosciences, Inc. The enzyme activity evaluation method provided by Carna biosciences Inc., is shown below.
Enzyme inhibition activity was evaluated by reacting the compounds according to Examples with human GST-PIKFYVE (11-118, Carna biosciences), which was purified using glutathione Sepharose chromatography. The reaction buffer used was composed of 50 mmol/L MOPS, 1 mmol/L DTT, and pH 7.2, and all reactions of the test distilled water were performed in the buffer.
Compounds were prepared as solutions in 100% DMSO as 100× stocks and adjusted to have a final sample concentration of 10 nM.
The substrate-enzyme reaction for PIKFYVE was performed by mixing 5 μL human GST-PIKFYVE, 5 μL compounds according to Examples, 5 μL enzyme substrate, and 5 μL purified ATP and reacting for 1 hour at room temperature. After the substrate-enzyme reaction, 20 μL ADP-Glo™ Reagent was added and reacted at room temperature for 40 minutes, then 40 μL Kinase Detection Reagent was added and reacted at room temperature for 40 minutes.
After completion of the reaction, the degree of enzyme activity inhibition was measured by luminescence. The fluorescence of the enzyme activity in the solvent control group […] was set to 100%, and the fluorescence of the enzyme activity in the solvent control group without compound treatment was set to 0%. The inhibitory activity of each compound according to Examples was calculated based on these values.
On to `Cc1cccc(/C=N/Nc2nc(N3CCOCC3)nc3c2nc(C)n3-c2cccc(Cl)c2)c1` [Example 163, (E)-4-(9-(3-chlorophenyl)-8-methyl-6-(2-(3-methylbenzylidene)hydrazinyl)-9H-purin-2-yl)morpholine], for which the “ADP-Glo kinase assay (%, 10 nM)” value turned out to be 54.29%. Consider `Cc1cccc(/C=N/Nc2nc(N3CCOCC3)nc3c2nc(C)n3-c2ccccn2)c1` [Example 164, (E)-4-(8-methyl-6-(2-(3-methylbenzylidene)hydrazinyl)-9-(pyridin-2-yl)-9H-purin-2-yl)morpholine], for which the “ADP-Glo kinase assay (%, 10 nM)” value worked out at 63.89%. Regarding `Cc1ccccc1/C=N/n1cnc2c(Nc3ccncc3)nc(N3CCOCC3)nc21` [Example 167, (E)-9-((2-methylbenzylidene)amino)-2-morpholino-N-(pyridin-4-yl)-9H-purin-6-amine], the “ADP-Glo kinase assay (%, 10 nM)” value came out at 68.47%.

`Cc1ccc(/C=N/n2cnc3c(Nc4ccncc4)nc(N4CCOCC4)nc32)cc1` [Example 168, (E)-9-((4-methylbenzylidene)amino)-2-morpholino-N-(pyridin-4-yl)-9H-purin-6-amine]: the “ADP-Glo kinase assay (%, 10 nM)” value is 87.26%. Consider `C(=N\n1cnc2c(Nc3ccncc3)nc(N3CCOCC3)nc21)/c1ccccc1` [Example 169, (E)-9-(benzylideneamino)-2-morpholino-N-(pyridin-4-yl)-9H-purin-6-amine], for which the “ADP-Glo kinase assay (%, 10 nM)” value is 89.56%. For the compound `FC(F)(F)c1cccc(/C=N/n2cnc3c(Nc4ccncc4)nc(N4CCOCC4)nc32)c1` [Example 170, (E)-2-morpholino-N-(pyridin-4-yl)-9-((3-(trifluoromethyl)benzylidene)amino)-9H-purin-6-amine], the “ADP-Glo kinase assay (%, 10 nM)” value is listed as 79.60%. Then `Clc1cccc(/C=N/n2cnc3c(Nc4ccncc4)nc(N4CCOCC4)nc32)c1` [Example 171, (E)-9-((3-chlorobenzylidene)amino)-2-morpholino-N-(pyridin-4-yl)-9H-purin-6-amine], with 86.73%. Then `COc1cccc(/C=N/n2cnc3c(Nc4ccncc4)nc(N4CCOCC4)nc32)c1` [Example 172, (E)-9-((3-methoxybenzylidene)amino)-2-morpholino-N-(pyridin-4-yl)-9H-purin-6-amine], with 90.96%. For `COc1ccc(/C=N/n2cnc3c(Nc4ccncc4)nc(N4CCOCC4)nc32)cc1` [Example 173, (E)-9-((4-methoxybenzylidene)amino)-2-morpholino-N-(pyridin-4-yl)-9H-purin-6-amine], the “ADP-Glo kinase assay (%, 10 nM)” value was 73.94%. As to `Cc1cccc(/C=N/n2cnc3c(-n4ccnc4)nc(N4CCOCC4)nc32)c1` [Example 176, (E)-N-(6-(1H-imidazol-1-yl)-2-morpholino-9H-purin-9-yl)-1-(m-tolyl)methanimine], the “ADP-Glo kinase assay (%, 10 nM)” value was found to be 56.91%. Consider `COc1ccc(Nc2nc(N3CCOCC3)nc3c2ncn3/N=C/c2cccc(C)c2)cc1` [Example 178, (E)-N-(4-methoxyphenyl)-9-((3-methylbenzylidene)amino)-2-morpholino-9H-purin-6-amine], for which the “ADP-Glo kinase assay (%, 10 nM)” value came out at 55.44%.

`Cc1cccc(/C=N/n2cnc3c(Nc4ccccc4)nc(N4CCOCC4)nc32)c1` [Example 180, (E)-9-((3-methylbenzylidene)amino)-2-morpholino-N-phenyl-9H-purin-6-amine]: the “ADP-Glo kinase assay (%, 10 nM)” value came out at 63.03%. Take `Cc1ccc(Nc2nc(N3CCOCC3)nc3c2ncn3/N=C/c2cccc(C)c2)cc1` [Example 181, (E)-9-((3-methylbenzylidene)amino)-2-morpholino-N-(p-tolyl)-9H-purin-6-amine]: the “ADP-Glo kinase assay (%, 10 nM)” value is recorded as 53.92%. Turning to `COc1cccc(Nc2nc(N3CCOCC3)nc3c2ncn3/N=C/c2cccc(C)c2)c1` [Example 184, (E)-N-(3-methoxyphenyl)-9-((3-methylbenzylidene)amino)-2-morpholino-9H-purin-6-amine], the “ADP-Glo kinase assay (%, 10 nM)” value worked out at 55.65%. Then `Cc1cccc(/C=N/n2cnc3c(Nc4ccc(Cl)cc4)nc(N4CCOCC4)nc32)c1` [Example 186, (E)-N-(4-chlorophenyl)-9-((3-methylbenzylidene)amino)-2-morpholino-9H-purin-6-amine], with 52.43%. `COc1ccccc1Nc1nc(N2CCOCC2)nc2c1ncn2/N=C/c1cccc(C)c1` [Example 187, (E)-N-(2-methoxyphenyl)-9-((3-methylbenzylidene)amino)-2-morpholino-9H-purin-6-amine]: the “ADP-Glo kinase assay (%, 10 nM)” value is 52.07%. As to `Cc1cccc(/C=N/n2cnc3c(Nc4cc(C)n(C)n4)nc(N4CCOCC4)nc32)c1` [Example 188, (E)-N-(1,5-dimethyl-1H-pyrazol-3-yl)-9-((3-methylbenzylidene)amino)-2-morpholino-9H-purin-6-amine], the “ADP-Glo kinase assay (%, 10 nM)” value was 65.93%. Take `Cc1cccc(Nc2nc(N3CCOCC3)nc3c2ncn3/N=C/c2cccnc2)c1` [Example 190, (E)-2-morpholino-9-((pyridin-3-ylmethylene)amino)-N-(m-tolyl)-9H-purin-6-amine]: the “ADP-Glo kinase assay (%, 10 nM)” value is reported as 78.59%.

For the compound `Cc1cccc(/C=N/n2cnc3c(Nc4cncc(C)c4)nc(N4CCOCC4)nc32)c1` [Example 192, (E)-9-((3-methylbenzylidene)amino)-N-(5-methylpyridin-3-yl)-2-morpholino-9H-purin-6-amine], the “ADP-Glo kinase assay (%, 10 nM)” value was determined as 61.25%. Turning to `Cc1cccc(/C=N/n2cnc3c(Nc4ccnc(Cl)c4)nc(N4CCOCC4)nc32)c1` [Example 193, (E)-N-(2-chloropyridin-4-yl)-9-((3-methylbenzylidene)amino)-2-morpholino-9H-purin-6-amine], the “ADP-Glo kinase assay (%, 10 nM)” value was determined as 64.35%.

Regarding `Cc1cccc(/C=N/n2cnc3c(Nc4cccnc4C)nc(N4CCOCC4)nc32)c1` [Example 194, (E)-9-((3-methylbenzylidene)amino)-N-(2-methylpyridin-3-yl)-2-morpholino-9H-purin-6-amine], the “ADP-Glo kinase assay (%, 10 nM)” value is listed as 61.38%. With `Cc1cccc(/C=N/n2cnc3c(Nc4cc(C)no4)nc(N4CCOCC4)nc32)c1` [Example 198, (E)-3-methyl-N-(9-((3-methylbenzylidene)amino)-2-morpholino-9H-purin-6-yl)isoxazol-5-amine], the “ADP-Glo kinase assay (%, 10 nM)” value is on record as 75.59%. For the compound `Cc1cccc(CNn2cnc3c(Nc4ccncc4)nc(N4CCOCC4)nc32)c1` [Example 203, N^9-(3-methylbenzyl)-2-morpholino-N^6-(pyridin-4-yl)-9H-purin-6,9-diamine], the “ADP-Glo kinase assay (%, 10 nM)” value came out at 53.14%. With `COc1ccc(Nc2nc(N3CCOCC3)nc3c2nc(C)n3/N=C/c2cccc(C)c2)cc1` [Example 205, (E)-N-(4-methoxyphenyl)-8-methyl-9-((3-methylbenzylidene)amino)-2-morpholino-9H-purin-6-amine], the “ADP-Glo kinase assay (%, 10 nM)” value was 53.74%. As to `Cc1cccc(/C=N/n2c(C)nc3c(Nc4ccccc4)nc(N4CCOCC4)nc32)c1` [Example 206, (E)-8-methyl-9-((3-methylbenzylidene)amino)-2-morpholino-N-phenyl-9H-purin-6-amine], the “ADP-Glo kinase assay (%, 10 nM)” value was determined as 53.87%. With `Cc1cccc(/C=N/n2c(C)nc3c(Nc4ccncc4)nc(N4CCOCC4)nc32)c1` [Example 207, (E)-8-methyl-9-((3-methylbenzylidene)amino)-2-morpholino-N-(pyridin-4-yl)-9H-purin-6-amine] the figure was 75.57%.
